Source: ChEMBL document CHEMBL1201862, “PubChem BioAssay data set” (2004)
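Grown in 96-well plates, cells were treated for 48 hours with each compound at five concentrations. Insufficient inhibition: endpoint recorded as highest concentration tested. Here, GI50 denotes the concentration required for 50% inhibition of growth.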 Active and inactive are the calls of the source. Rule as the data show it: active = GI50 up to about 1.1 µM and inactive = higher.

Assays:
Experiment in all cases: NCI tumour cell line growth inhibition, 48 h
[1] = tested on: M14
[2] = tested on: RPMI-8226
[3] = tested on: NCI-H460
[4] = tested on: HOP-62
[5] = tested on: SR
[6] = tested on: T47D
[7] = tested on: A549
[8] = tested on: HCC 2998
[9] = tested on: LOX IMVI
[10] = tested on: SF-539
[11] = tested on: SW-620
[12] = tested on: UACC-62
[13] = tested on: SF-295
[14] = tested on: NCI-H226
[15] = tested on: MDA-MB-435
[16] = tested on: HL-60
[17] = tested on: A498
[18] = tested on: NCI-H522
[19] = tested on: ACHN
[20] = tested on: SN12C
[21] = tested on: DU-145
[22] = tested on: MDA-MB-231
[23] = tested on: SNB-75
[24] = tested on: KM12
[25] = tested on: SK-MEL-5
[26] = tested on: SNB-19
[27] = tested on: SK-MEL-28
[28] = tested on: U-251
[29] = tested on: HT-29
[30] = tested on: CCRF-CEM
[31] = tested on: MCF7
[32] = tested on: OVCAR-8
[33] = tested on: RXF 393
[34] = tested on: EKVX
[35] = tested on: IGROV-1
[36] = tested on: TK-10
[37] = tested on: MOLT-4
[38] = tested on: OVCAR-5
[39] = tested on: NCI-H23
[40] = tested on: HCT-116
[41] = tested on: COLO 205
[42] = tested on: SF-268
[43] = tested on: UO-31
[44] = tested on: OVCAR-4
[45] = tested on: SK-MEL-2
[46] = tested on: SK-OV-3
[47] = tested on: CAKI-1
[48] = tested on: Malme-3M
[49] = tested on: NCI/ADR-RES
[50] = tested on: OVCAR-3
[51] = tested on: HCT-15
[52] = tested on: Hs-578T
[53] = tested on: PC-3
[54] = tested on: K562
[55] = tested on: 786-0
[56] = tested on: MDA-N

O=c1c2c(nc3[nH]ccn13)CCCC2
GI50 [1]: > 10 µM (inactive) | GI50 [2]: > 10 µM (inactive) | GI50 [3]: > 10 µM (inactive) | GI50 [4]: > 10 µM (inactive) | GI50 [5]: > 10 µM (inactive) | GI50 [6]: > 10 µM (inactive) | GI50 [7]: > 10 µM (inactive) | GI50 [8]: > 10 µM (inactive) | GI50 [9]: > 10 µM (inactive) | GI50 [10]: > 10 µM (inactive) | GI50 [11]: > 10 µM (inactive) | GI50 [12]: > 10 µM (inactive) | GI50 [13]: > 10 µM (inactive) | GI50 [14]: > 10 µM (inactive) | GI50 [15]: > 10 µM (inactive) | GI50 [16]: > 10 µM (inactive) | GI50 [17]: > 10 µM (inactive) | GI50 [18]: > 10 µM (inactive) | GI50 [19]: > 10 µM (inactive) | GI50 [20]: > 10 µM (inactive) | GI50 [21]: > 10 µM (inactive) | GI50 [22]: > 10 µM (inactive) | GI50 [23]: > 10 µM (inactive) | GI50 [24]: > 10 µM (inactive) | GI50 [25]: > 10 µM (inactive) | GI50 [26]: > 10 µM (inactive) | GI50 [27]: > 10 µM (inactive) | GI50 [28]: > 10 µM (inactive) | GI50 [29]: > 10 µM (inactive) | GI50 [30]: > 10 µM (inactive) | GI50 [31]: > 10 µM (inactive) | GI50 [32]: > 10 µM (inactive) | GI50 [33]: > 10 µM (inactive) | GI50 [34]: > 10 µM (inactive) | GI50 [35]: > 10 µM (inactive) | GI50 [36]: > 10 µM (inactive) | GI50 [37]: > 10 µM (inactive) | GI50 [38]: > 10 µM (inactive) | GI50 [39]: > 10 µM (inactive) | GI50 [40]: > 10 µM (inactive) | GI50 [41]: > 10 µM (inactive) | GI50 [42]: > 10 µM (inactive) | GI50 [43]: > 10 µM (inactive) | GI50 [44]: > 10 µM (inactive) | GI50 [45]: > 10 µM (inactive) | GI50 [46]: > 10 µM (inactive) | GI50 [47]: > 10 µM (inactive) | GI50 [48]: > 10 µM (inactive) | GI50 [49]: > 10 µM (inactive) | GI50 [50]: > 10 µM (inactive) | GI50 [51]: > 10 µM | GI50 [52]: 1.23 µM (inactive) | GI50 [53]: > 10 µM (inactive)

Cc1cc(N)c2ccccc2[n+]1CCCCCCCCCCNc1cc(C)[n+](CCCCCCCCCC[n+]2c(C)cc(N)c3ccccc32)c2ccccc12
GI50 [1]: 0.746 µM (active) | GI50 [2]: 0.352 µM (active) | GI50 [54]: 0.4 µM (active) | GI50 [4]: 0.929 µM (active) | GI50 [7]: 0.692 µM (active) | GI50 [8]: 0.759 µM (active) | GI50 [9]: 1.79 µM (inactive) | GI50 [11]: 2.23 µM (inactive) | GI50 [12]: 0.608 µM (active) | GI50 [13]: 1.32 µM (inactive) | GI50 [15]: 0.427 µM (active) | GI50 [19]: 0.964 µM (active) | GI50 [20]: 0.293 µM (active) | GI50 [21]: 1.75 µM (inactive) | GI50 [24]: 0.618 µM (active) | GI50 [25]: 0.439 µM (active) | GI50 [27]: 0.528 µM (active) | GI50 [28]: 0.406 µM (active) | GI50 [29]: 11.6 µM (inactive) | GI50 [55]: 0.547 µM (active) | GI50 [30]: 0.52 µM (active) | GI50 [31]: 0.682 µM (active) | GI50 [32]: 1.61 µM (inactive) | GI50 [34]: 14.6 µM (inactive) | GI50 [35]: 1.35 µM (inactive) | GI50 [37]: 1.01 µM (active) | GI50 [38]: 1.49 µM (inactive) | GI50 [39]: 0.516 µM (active) | GI50 [40]: 1.35 µM (inactive) | GI50 [41]: 0.375 µM (active) | GI50 [56]: 0.333 µM (active) | GI50 [43]: 1.86 µM (inactive) | GI50 [45]: 1.41 µM (inactive) | GI50 [47]: 34.6 µM (inactive) | GI50 [50]: 1.56 µM (inactive) | GI50 [51]: 1.75 µM | GI50 [53]: 1.02 µM (active)
